Earlier results in patent US11191820B2, “Method for inducing early T memory response with short peptides anti-tumor vaccine” (OSE IMMUNOTHERAPEUTICS, priority 2015, dated 2021).
Like-named read-outs stand apart in the source and are kept apart here.

Test system: advanced NSCLC
Settings: cited from earlier work

Molecule: nivolumab
- median PFS (phase 3 study in squamous NSCLC (Brahmer 2015)): 3.5 months

Molecule: C#Cc1cccc(Nc2ncnc3cc(OCCOC)c(OCCOC)cc23)c1 [Erlotinib]
- Progression-Free Survival (PFS) (advanced NSCLC after at least first line failure (Shepherd 2005)): 2.2 months

Molecule: Nc1nc2[nH]cc(CCc3ccc(C(=O)N[C@@H](CCC(=O)O)C(=O)O)cc3)c2c(=O)[nH]1 [pemetrexed]
- median PFS (phase 3, second line NSCLC (Bareschino 2011)): 2.9 months
